Where “and” joins values, the source holds several entries; their conditions need not be identical. Equal entries are not always repeated.
Experiments:
[1] = tested on: Bel-7402 cells (mock-treated and sorafenib-resistant); assay: Annexin V staining apoptosis assay, Bel-7402; assay type: cell-based, human
Experimental: (§1) Cells were stained in binding buffer, proipidium iodide (PI) and FITC-conjugated Annexin V as provided by the Annexin-V-FLUO+S Staining Kit (Roche Diagnostics) according to manufacturer's instructions. Analysis was determined using a Canto II flow cytometer and FACSdiva software (BD Biosciences).

[2] = tested on: Huh-7 cells (mock-treated and sorafenib-resistant); assay: Annexin V staining apoptosis assay, Huh-7; assay type: cell-based, human
Experimental: as §1

[3] = tested on: NF-κB binding to the CD47 promoter; assay: ChIP-qPCR assay of NF-κB occupancy on the CD47 promoter; assay type: cell-based, human
Experimental: The cells were processed for ChIP assays according to Upstate CHIP protocol. Briefly, cells were cross-linked for 10 min with 1% formaldehyde and lysed. Lysate pellets were resuspended and sonicated with a Microson sonifier XL-2000 (Misonix) for 10 cycles (ON/OFF 30 seconds; amplitude 10 microns). Protein-DNA complexes were immunoprecipitated using p65 (C-20) antibody (Santa Cruz Technology, Santa Cruz, Calif.) or Normal rabbit IgG (Thermo Fisher Scientific, Rockford, Ill.) bound to protein A agarose, eluted, and digested with proteinase K. For qPCR analysis of the ChIP DNA samples before amplicon generation, QIAquick-purified immunoprecipitates were dissolved in 30 μl of water. Standard PCR reactions using […] of the immunoprecipitated DNA were performed with a SYBR Green PCR kit (Applied Biosystems) using primers which generates a PCR amplicon flanking −564 and -1740 base pairs upstream of the NM 001777 (CD47) transcription start site based on bioinformatics analysis on the Human Genome Build from the UCSC Genome Browser February 2009 (GRCh37/hg19) Assembly. Calculation of NF-κB occupancy on the CD47 promoter was performed according to the ChIP-qPCR primer assay data analysis template from Superarray Bioscience (Frederick, Md.).

[4] = tested on: NF-κB (nuclear p65 (Ser536), cytosolic p-IκBα (Ser32/36)); assay: Western blotting of NF-κB activation; assay type: cell-based, human
Experimental: upon lysis with Buffer A (0.5 mM DTT, 10 mM HEPES, 10 mM KCl 1.5 mM MgCl2, pH7.9) for 15 minutes on ice and 0.5% NP-40 was added before extraction by centrifugation. The remaining pellet was treated with RIPA buffer (50 mM Tris-HCl pH7.4, 1% NP-40, 0.05% SDS 150 mM NaCl, 1 mM EDTA) for 30 minutes on ice and the nuclear fraction was obtained by centrifugation.
Western blots were developed using an ECL Plus kit (Amersham Biosciences, Piscataway, N.J.). The primary antibodies included mouse anti-human p65 (Ser536), mouse anti-human p-Akt (Ser473), anti-human p-Erk (Thr202/Tyr204), rabbit anti-human Bcl-2, rabbit anti-human cleaved caspase-9, rabbit anti-human cleaved PARP, mouse anti-human p-IκBα (Ser32/36) (Cell Signal Technology) and mouse anti-human α-tubulin, rabbit anti-human Bax, rabbit anti-human SP1 (PEP2) (Santa Cruz Technology, Santa Cruz, Calif.). After washing, the membrane was incubated with horseradish peroxidase-conjugated anti-mouse or rabbit antibody (Amersham) and then visualized with enhanced chemiluminescence plus according to the manufacturer's protocol.

[5] = tested on: CD47 expression; assay: Flow cytometric analysis of cell-surface CD47; assay type: cell-based, human
Experimental: Phycoerythrin (PE)-conjugated CD47 (BD PharMingen, San Jose, Calif.), APC-conjugated CD133 (MACS Miltenyi Biotec), FITC-conjugated CD24 (MACS Miltenyi Biotec), FITC-conjugated EPCAM (Becton Dickinson), were incubated in phosphate-buffered saline (PBS) containing 2% fetal bovine serum (FBS) for 30 minutes at 4° C. Isotype-matched mouse immunoglobulins served as controls. The samples were analyzed using a Canto II flow cytometer and FACSdiva software (BD Biosciences, San Jose, Calif.).

[6] = tested on: NF-κB promoter activity; assay: Luciferase reporter assay, NF-κB promoter; assay type: cell-based, human
Experimental: (§2) NF-κB promoter plasmid pNF-κB-Luc or CD47 luciferase promoter plasmid were transfected together with pRL-cytomegalovirus as normalization using Lipofectamine 2000 (Thermo Fisher Scientific). Cell were incubated for 48 hours prior to detection by Dual-Luciferase Reporter Assay System Kit (Promega) according to manufacterer's protocol. Gaussia Luciferase Assay Kit (GeneCopoeia) was used for CD47 detection. Samples were detected with Infinite F200 Tecan Multiplate reader (Tecan Austria GmbH).

[7] = tested on: CD47 promoter activity; assay: Luciferase reporter assay, CD47 promoter; assay type: cell-based, human
Experimental: as §2

[8] = tested on: MHCC97L cells; assay: Annexin V staining apoptosis assay, MHCC97L; assay type: cell-based, human; details: sorafenib 10 μM; MHCC97L shCD47 vs control
Experimental: as §1

[9] = tested on: mock-treated and sorafenib-resistant HCC cells (Bel-7402 and Huh-7); assay: XTT cell proliferation assay; assay type: cell-based, human; details: sorafenib 5 to 25 μM, 48 h; mock-treated vs sorafenib-resistant cells
Experimental: After 48 h, (2,3-Bis-(2-Methoxy-4-Nitro-5-Sulfophenyl)-2H-Tetrazolium-5-Carboxanilide) (XTT) dye, at a concentration of 5 mg/mL (Sigma-Aldrich, St Louis, Mo.), was added and the plates were incubated for 12 h in a moist chamber at 37° C. Optical density was determined by eluting the dye with dimethyl sulfoxide (Sigma-Aldrich) and the absorbance was measured at 570 nm. At least three independent experiments were performed.

[10] = tested on: PDTX#5 tumor tissues; assay: TUNEL assay of apoptotic nuclei in PDTX#5 tumors; assay type: in vivo, mice; details: tumors harvested day 31
Experimental: The TUNEL assay was performed to detect apoptotic cells using in situ cell death detection kit (Roche Diagnostics, Indianapolis, Ind.). Briefly, paraffin-embedded tissues were fixed with 15 μg/mL proteinase K in 10 mM Tris/HCl at pH 7.4. The slides were then incubated with the TUNEL reaction mixture for 1 h at 37° C. After washing, the slides were incubated with a horseradish peroxidase-conjugated anti-fluorescein antibody for 30 min at 37° C. Stained slides were imaged on an Aperio Scanscope® CS imager (Vista, Calif.), generating 0.43 μm/pixel whole slide images. These images were compiled, and number of apoptotic nuclei was quantitated using the Aperio Spectrum® software with a pixel count algorithm.

[11] = tested on: patient-derived HCC tumor xenografts (PDTX#1 and PDTX#5); assay: Sorafenib treatment of PDTX#1 and PDTX#5 xenografts (in vivo selection); details: sorafenib 100 mg/kg oral for 31 days; NOD-SCID mice
Source text: Using this in vivo treatment, we enriched the proportion of sorafenib-resistant HCC cells in residual tumors.

[12] = target: CD47 (human) (UniProt Q08722); assay: cell-based or functional assay
[13] = IMD-0354, Huh-7 and MHCC97L cells
[14] = TNF-α 20 ng/mL, PLC/PRF/5 and Bel-7402 cells
[15] = TNF-α for 1 hour, Bel-7402 and PLC/PRF/5 cells

With `O=C(Nc1cc(C(F)(F)F)cc(C(F)(F)F)c1)c1cc(Cl)ccc1O` [IMD-0354] the “Toxic effects on cells” value ([1]; 0.5 μM IMD-0354, Bel-7402) was “no toxic effects”, the Sensitization to sorafenib ([1]; 0.5 μM IMD-0354 cotreatment with sorafenib, Bel-7402) was “sensitized” and the “Annexin V-positive (apoptotic) cells” value ([1]; sorafenib plus IMD-0354 at 0.5 μM, mock-treated Bel-7402) was 30.8%. The “Annexin V-positive (apoptotic) cells” value ([1]; sorafenib plus IMD-0354 at 0.5 μM, sorafenib-resistant Bel-7402) was 32.9%, the “Toxic effects on cells” value ([2]; 0.05 μM IMD-0354, Huh-7) was “no toxic effects” and the Sensitization to sorafenib ([2]; 0.05 μM IMD-0354 cotreatment with sorafenib, Huh-7) was “sensitized”. For the same molecule, the “Annexin V-positive (apoptotic) cells” value ([2]; sorafenib plus IMD-0354, mock-treated Huh-7) was 50.2%, the “Annexin V-positive (apoptotic) cells” value ([2]; sorafenib plus IMD-0354, sorafenib-resistant Huh-7) was 33.9% and the “Fold enrichment of NF-κB binding relative to background” value ([3]; Huh-7 cells, site 1, 1 μM IMD-0354 for 24 hours (untreated 1.4-fold)) was 1.1 fold. For the same molecule, the “Fold enrichment of NF-κB binding relative to background” value ([3]; Huh-7 cells, site 2, 1 μM IMD-0354 for 24 hours (untreated 1.8-fold)) was 0.9 fold, the “Fold enrichment of NF-κB binding relative to background” value ([3]; MHCC97L cells, site 1, 3 μM IMD-0354 for 24 hours (untreated 4.3-fold)) was 1.4 fold and the “Fold enrichment of NF-κB binding relative to background” value ([3]; MHCC97L cells, site 2, 3 μM IMD-0354 for 24 hours (untreated 2.8-fold)) was 1.5 fold. The “NF-κB activation (phosphorylation of p65 and IκBα)” value ([4]; IMD-0354 at 1 μM in Huh-7 and 3 μM in MHCC97L cells) was “effectively suppressed NF-κB activation”, the “Cell-surface expression of CD47” value ([5]; IMD-0354, MHCC97L and Huh-7 cells) was “reduction in cell-surface expression of CD47” and the NF-κB promoter activity [6, 13] was “significantly down-regulated”. The CD47 promoter activity [7, 13] was “significantly down-regulated”.

`CNC(=O)c1cc(Oc2ccc(NC(=O)Nc3ccc(Cl)c(C(F)(F)F)c3)cc2)ccn1` [sorafenib] was tested, and the “Annexin V-positive (apoptotic) cells” value ([1]; sorafenib 15 μM, mock-treated Bel-7402, after CD47 knockdown) was 38%, the “Annexin V-positive (apoptotic) cells” value ([1]; sorafenib 15 μM, mock-treated Bel-7402, before CD47 knockdown (nontarget control)) was 25.2% and the “Annexin V-positive (apoptotic) cells” value ([1]; sorafenib 15 μM, sorafenib-resistant Bel-7402, after CD47 knockdown) was 37.6%. The “Annexin V-positive (apoptotic) cells” value ([1]; sorafenib 15 μM, sorafenib-resistant Bel-7402, before CD47 knockdown (nontarget control)) was 19.1%, the “Annexin V-positive (apoptotic) cells” value ([1]; sorafenib alone, mock-treated Bel-7402) was 29.0% and the “Annexin V-positive (apoptotic) cells” value ([1]; sorafenib alone, sorafenib-resistant Bel-7402) was 14.9% and 13.2%. The “Sensitivity of cells to sorafenib after CD47 knockdown” value ([2]; sorafenib 10 μM, Huh-7 shCD47 vs control) was “increased the sensitivity of cells to sorafenib”, the “Annexin V-positive (apoptotic) cells” value ([2]; sorafenib alone, mock-treated Huh-7) was 37.7% and 43.0% and the “Annexin V-positive (apoptotic) cells” value ([2]; sorafenib alone, sorafenib-resistant Huh-7) was 28.4% and 35.1%. For the same molecule, the “Annexin V-positive (apoptotic) cells” value ([2]; sorafenib, mock-treated Huh-7, after CD47 knockdown) was 57.9%, the “Annexin V-positive (apoptotic) cells” value ([2]; sorafenib, mock-treated Huh-7, before CD47 knockdown (nontarget control)) was 48.8% and the “Annexin V-positive (apoptotic) cells” value ([2]; sorafenib, sorafenib-resistant Huh-7, after CD47 knockdown) was 56.9%. For the same molecule, the “Annexin V-positive (apoptotic) cells” value ([2]; sorafenib, sorafenib-resistant Huh-7, before CD47 knockdown (nontarget control)) was 38.8%, the “Sensitivity of cells to sorafenib after CD47 knockdown” value [8] was “increased the sensitivity of cells to sorafenib” and the “Growth-suppressive effect on cell proliferation” value [9] was “significantly greater in mock-treated cells”. For the same molecule, the “Percentage of apoptotic nuclei in tumor tissues (TUNEL)” value [10] was “higher” and the “Effect on xenograft tumors” value [11] was “tumor inhibition”.

For TNF-α, the “Fold enrichment of NF-κB binding relative to background” value ([3]; Bel-7402 cells, site 1, 20 ng/mL TNF-α, 1 hour before fixation (untreated 1.5-fold)) was 2.5 fold, the “Fold enrichment of NF-κB binding relative to background” value ([3]; Bel-7402 cells, site 2, 20 ng/mL TNF-α, 1 hour before fixation (untreated 1.6-fold)) was 2.5 fold and the “NF-κB activation (nuclear p65 (Ser536) and cytosolic p-IκBα (Ser32/36))” value [4, 14] was “successfully induced NF-κB activation”. The “CD47 expression on the surface of HCC cells” value [5, 14] was “increase in CD47 expression”, the NF-κB promoter activity [6, 15] was “increase in NF-κB promoter activity” and the CD47 promoter activity [7, 15] was “corresponding increase in CD47 promoter activity”.

B1: Monoclonal antibody against CD47 (B6H12) (antibody, from another filing, V domains shown)
VH: EVQLVESGGDLVKPGGSLKLSCAASGFTFSGYGMSWVRQTPDKRLEWVATITSGGTYTYYPDSVKGRFTISRDNAKNTLYLQIDSLKSEDTAIYFCARSLAGNAMDYWGQGTSVTVSS
VL: DIVMTQSPATLSVTPGDRVSLSCRASQTISDYLHWYQQKSHESPRLLIKFASQSISGIPSRFSGSGSGSDFTLSINSVEPEDVGVYYCQNGHGFPRTFGGGTKLEIK
In the case of B1, the sorafenib sensitivity, mock-treated Bel-7402 cells, without to with anti-CD47 antibody at 2 µg/mL [12] is reported as 29 to 37.6%, the sorafenib sensitivity, mock-treated Huh-7 cells, without to with anti-CD47 antibody at 2 µg/mL [12] is reported as 43 to 48.5% and the sorafenib sensitivity, sorafenib-resistant Bel-7402 cells, without to with anti-CD47 antibody at 2 µg/mL [12] is reported as 13.2 to 38.4%. It also gave a sorafenib sensitivity, sorafenib-resistant Huh-7 cells, without to with anti-CD47 antibody at 2 µg/mL [12] of 35.1 to 39.3%.

— patent publication US20170071918A1 (THE UNIVERSITY OF HONG KONG, priority 2015, published 2017)
